Experimental data reported in patent US20070248702A1, “Use of CB2 receptors agonists for the treatment of Huntington's disease” (priority 2004, published 2007).

Legend:
[1] = tested on: mice treated with the neurotoxin MPTP; settings: WO 03/064359; cited from earlier work
[2] = tested on: rats with unilateral injections of malonate; assay: in situ hybridization of SOD-1 and SOD-2 mRNA, malonate rat model; assay type: in vivo; settings: result in words, HU-308 5 mg/kg i.p.
Method: The protocol and results concerning possible sites of action are reported in Example 6.
(§1) Brain slicing. Coronal sections, 40 μm-thick, were cut in a cryostat, according to the Paxinos G. and Watson C. atlas (Rat brain in stereotaxic coordinates. Academic Press, London, 1986). Sections were thaw-mounted onto Superfrost Plus glass slides and dried briefly at 30° C. and stored at −80° C. until used.
Analysis of mRNA levels of NSE. Briefly, sections were fixed in 4% paraformaldehyde for 5 min and, after rinsing twice in PBS, were acetylated by incubation in 0.25% acetic anhydride, prepared in 0.1 M triethanolamine/0.15 M sodium chloride (pH 8.0), for 10 min. Sections were rinsed in 0.3 M sodium chloride/0.03 M sodium citrate, pH 7.0, dehydrated and delipidated by ethanol/chloroform series. For hybridization, the following synthetic probe of 45 nucleotides was used. […]
(§2) The oligonucleotide probe was labeled at the 3′-end with [^35S]-dATP using terminal deoxynucleotidyl-transferase. […] The intensity of the hybridization signal was assessed by measuring the grey levels in the films with a computer-assisted video densitometer. […]
Superoxide dismutase-1 and -2 (SOD-1 and SOD-2) were used as markers of endogenous antioxidant defenses. Their relative levels in lesioned vs. non-lesioned areas of malonate injected rats were measured by in situ hybridization. […]

human CB1 receptors = human CB1 receptors (Homo sapiens, UniProt P21554); settings: read-out: IC50 human CB1 receptors; as disclosed in WO 03/064359; cited from earlier work
human CB1 receptors, sequence (P21554 whole entry): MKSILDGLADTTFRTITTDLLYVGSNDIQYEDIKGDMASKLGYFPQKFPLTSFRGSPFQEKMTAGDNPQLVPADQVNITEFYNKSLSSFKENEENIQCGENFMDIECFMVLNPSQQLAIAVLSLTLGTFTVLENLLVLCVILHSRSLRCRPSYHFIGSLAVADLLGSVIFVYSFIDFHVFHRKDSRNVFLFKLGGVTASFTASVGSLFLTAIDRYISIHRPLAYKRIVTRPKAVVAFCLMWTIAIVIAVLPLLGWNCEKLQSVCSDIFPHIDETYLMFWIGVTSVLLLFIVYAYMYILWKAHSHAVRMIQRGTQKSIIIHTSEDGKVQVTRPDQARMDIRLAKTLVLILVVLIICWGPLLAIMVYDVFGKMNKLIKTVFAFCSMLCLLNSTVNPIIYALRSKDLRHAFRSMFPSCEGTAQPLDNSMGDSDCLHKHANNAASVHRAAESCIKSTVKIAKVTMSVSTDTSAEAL

[3] = tested on: rats with unilateral injections of malonate; assay: dopamine and DOPAC contents in caudate-putamen by HPLC, malonate rat model; assay type: in vivo; settings: % of lesioned side over non-lesioned side, mean ± SEM; i.p. 30 min before and 2 h after malonate (ACEA 3 mg/kg, HU-308 5 mg/kg, CBD 5 mg/kg); 48 h
Method: (§3) Animals. Male Sprague-Dawley rats were housed in a room with controlled photoperiod (08:00-20:00 light) and temperature (23±1° C.). […] Each treatment group consisted of at least six animals.
(§4) Intrastriatal injection of malonate. Rats were injected stereotaxically (coordinates: +0.8 mm anterior, 2.9 mm lateral from the bregma, 4.5 mm ventral from the dura mater) into the left striatum with 2 M malonate in a volume of 1 μl and used for experimental analysis 48 h later.
(§5) Cannabinoid treatment. […] All compounds were prepared in Tween 80-saline solution (1:16 volume per volume). The volume dosage for i.p. administration was 2 ml/kg body weight. The doses used for each experiment were selected from the previous studies on the pharmacological properties of these compounds.
(§6) Animals were killed 46 hours after the second cannabinoid injection and their brains were rapidly removed and frozen in 2-methylbutane cooled in dry ice, and stored until evaluation of the degree of malonate-induced striatal injury.
(§7) Sample preparation. Brains coronal slices (around 500 μm thick) were made at levels containing the substantia nigra, the globus pallidus and the caudate-putamen, according to Palkovits M. and Brownstein J. (Maps and Guide to Microdissection of the Rat Brain. Elsevier, 1988). Subsequently, the three structures were dissected and homogenized in 20-40 volumes of cold 150 mM potassium phosphate buffer, pH 6.8. Each homogenate was distributed for the analysis of the contents of GABA or dopainine and its major metabolite, 3,4-dihydroxyphenylacetic acid (DOPAC), by High Performance Liquid Chromatography (HPLC) coupled to electrochemical detection, according to previously described methods (Romero J. et al., Brain Res. 694: 223-32, 1995; González S. et al., Life Sci. 65: 327-36, 1999). An aliquot of each homogenate was used to analyze protein concentration (Lowry O. H. et al., J. Biol. Chem. 193: 265-75, 1951).

[4] = tested on: rats with unilateral injections of malonate; assay: GABA contents in basal ganglia by HPLC, malonate rat model of Huntington's disease; assay type: in vivo; settings: for GABA contents Globus pallidus / GABA contents Substantia nigra: % of lesioned side over non-lesioned side, mean ± SEM, i.p. 30 min before and 2 h after malonate (ACEA 3 mg/kg, HU-308 5 mg/kg, CBD 5 mg/kg), 48 h; for malonate-induced GABA loss in the striatum (caudate-putamen): FIG. 1, result in words, HU-308 5 mg/kg; for malonate-induced GABA loss in the striatum (caudate-putamen) / neurochemical deficits induced by malonate in the caudate-putamen and other basal ganglia structures: CBD 5 mg/kg i.p.; for neurochemical deficits induced by malonate in the caudate-putamen and other basal ganglia structures: Table 1 and FIG. 1, result in words, ACEA 3 mg/kg
Method: as §3, §4, §5, §6, §7
Analysis of GABA contents. This analysis was carried out by HPLC with electrochemical detection according to the procedure described by Smith S, and Sharp T. (J. Chromat. 652: 228-33, 1994). The aliquot of the homogenate used for the direct measurement of GABA content was diluted 1:2 with 0.4 N perchloric acid containing 0.4 mM sodium disulfite, 0.90 mM EDTA and 10 μg/ml β-aminobutyrate (BABA) as an internal standard. Following, samples were centrifuged for 3 min (15,000 g) and 50 μl of each supernatant removed and neutralized with 100 μl of 0.1 N NaOH. Samples were stored at 4° C. until analysis. This was performed by derivatization of GABA and BABA (β-aminobutyrate) through the addition of 15 μl of o-phthaldehyde (OPA)-sulfite solution (14.9 mM OPA, 45.4 mM sodium sulfite and 4.5% ethanol in 327 mM borate buffer, pH 10.4). Samples were allowed to react at room temperature for a period of 10 min. After this time, 20 μl of each reaction mixture (including derivatizated calibration standards composed of known concentrations of GABA and BABA) were injected into the HPLC system. The HPLC system consisted of the following elements. The pump was an isocratic Spectra-Physics 8810. The column was a RP-18 (Spherisorb ODS-2; 150 mm, 4.6 mm, 5 μm particle size; Waters, Mass., USA). The mobile phase, previously filtered and degassed, consisted of 0.06 M sodium dihydrogen phosphate, 0.06 mM EDTA and 20-30% methanol (pH 4.4) and the flow rate was 0.8 ml/min. The effluent was monitored with a Metrohm bioanalytical system amperometric detector using a glassy carbon electrode. The potential was 0.85V relative to an Ag/AgCl reference electrode with a sensitivity of 50 nA (approx. 2 ng per sample). The signal was recorded on a Spectra-Physics 4290 integrator. The approximate retention times for GABA and BABA were 8 and 16 min, respectively. […] Values were expressed as μg/mg of protein.

[5] = tested on: rats with unilateral injections of malonate; assay: in situ hybridization of neuronal-specific enolase mRNA, malonate rat model; assay type: in vivo; settings: FIG. 2, result in words; HU-308 5 mg/kg, CBD 5 mg/kg i.p.
Method: Animals were killed 46 hours after the second cannabinoid injection and their brains were rapidly removed and frozen in 2-methylbutane cooled in dry ice, and stored until evaluation of the degree of malonate-induced striatal injury. The protocol and results concerning the neurochemical evaluation of the neuronal injury and the effect of the various types of cannabinoids are reported in Example 2. The protocol and results concerning the effect of the various types of cannabinoids on the mRNA levels of neuron specific enolase are reported in Example 3.
as §1
Analysis of mRNA levels of NSE. Briefly, sections were fixed in 4% paraformaldehyde for 5 min and, after rinsing twice in PBS, were acetylated by incubation in 0.25% acetic anhydride, prepared in 0.1 M triethanolamine/0.15 M sodium chloride (pH 8.0), for 10 min. […]
as §2

[6] = tested on: rats with unilateral lesions of the caudate-putamen generated by local application of malonate; settings: Lastres-Becker et al., Neuroreport 14: 813-6, 2003; effects not dose-dependent; cited from earlier work
[7] = tested on: rats systemically exposed to 3-nitropropionic acid; settings: Lastres-Becker et al., Neuroreport 15: 2375-9, 2004; cited from earlier work

Compound: CCCCCCC(C)(C)c1cc(OC)c(C2C=C(CO)C3CC2C3(C)C)c(OC)c1 (single isomer, unassigned; (+)) [HU-308, (+){4-[4-(1,1-dimethylheptyl)-2,6-dimethoxyphenyl]-6,6-dimethyl-bicyclo[3.1.1]hept-2-en-2-yl}-methanol]
- cell death in the substantia nigra [1]: reduces the extent of cell death in the substantia nigra
- mRNA levels for SOD-1 in the caudate-putamen ([2]; FIG. 5A): unable to prevent the malonate-induced decrease
- mRNA levels for SOD-2 in the caudate-putamen ([2]; FIG. 5B): unable to prevent the malonate-induced decrease
- IC50 (human CB1 receptors): 3.6 µM
- DA contents Caudate-putamen [3]: 34.1 ± 5.2 %
- DOPAC contents Caudate-putamen [3]: 53.9 ± 5.7 %
- GABA contents Globus pallidus [4]: 90.1 ± 13.4 %
- GABA contents Substantia nigra [4]: 93.8 ± 7.7%
- malonate-induced GABA loss in the striatum (caudate-putamen) [4]: reduced malonate-induced GABA loss
- GABA contents in the lesioned side ([4]; striatum, lesioned side, malonate + HU-308 5 mg/kg i.p.): 1.12±0.08 μg/mg of protein
- GABA contents in the non-lesioned side ([4]; striatum, non-lesioned side, malonate + HU-308 5 mg/kg i.p.): 1.96±0.11 μg/mg of protein
- mRNA levels for neuronal-specific enolase in the caudate-putamen [5]: partially prevented the malonate-induced reduction

Compound: CCCCC/C=C\C/C=C\C/C=C\C/C=C\CCCC(=O)NCCCl [ACEA, arachidonyl-2-chloroethylamide]
- DA contents Caudate-putamen [3]: 23.8 ± 5.4 %
- DOPAC contents Caudate-putamen [3]: 44.9 ± 9.7 %
- GABA contents Globus pallidus [4]: 61.1 ± 12.2 %
- GABA contents Substantia nigra [4]: 92.1 ± 5.2%
- neurochemical deficits induced by malonate in the caudate-putamen and other basal ganglia structures [4]: did not influence neurochemical deficits

Compound: C=C(C)[C@@H]1CCC(C)=C[C@H]1c1c(O)cc(CCCCC)cc1O [CBD, cannabidiol]
- DA contents Caudate-putamen [3]: 12.6 ± 4.9 %
- GABA contents Globus pallidus [4]: 54.4 ± 8.2 %
- GABA contents Substantia nigra [4]: 86.3 ± 8.6%
- malonate-induced GABA loss in the striatum (caudate-putamen) [4]: slightly reduce the GABA depletion
- neurochemical deficits induced by malonate in the caudate-putamen and other basal ganglia structures [4]: lack of neuroprotectant effects
- mRNA levels for neuronal-specific enolase in the caudate-putamen [5]: totally inactive

Compound: Cc1c(C(=O)NN2CCCCC2)nn(-c2ccc(Cl)cc2Cl)c1-c1ccc(Cl)cc1 [SR141716]
- effect on malonate toxicity [6]: enhanced malonate toxicity

Compound: CCCCCc1cc(O)c2c(c1)OC(C)(C)[C@@H]1CCC(C)=C[C@@H]21 [Δ^9-THC, Δ^9-tetrahydrocannabinol]
- neuroprotection in 3-nitropropionic acid rats [7]: neuroprotectant
- effect on malonate toxicity [6]: pro-toxic

Compound: SR144528
- effect of co-administration on the HU-308 reduction of malonate-induced GABA depletion in the caudate-putamen ([4]; FIG. 3, SR144528 1 mg/kg i.p. with HU-308 5 mg/kg i.p.): completely reversed
